Target: T1, sproBACE1 (soluble form of human BACE1) (Homo sapiens, UniProt P56817)
T1 construct: sBACE1, corresponding to amino acids 1-454; made in house; host or cells: Sf9 insect cells (baculovirus), secreted into the medium
Assay: Peptide Hydrolysis Assay (HTRF, EuK-biotin labeled APPsw substrate)
Type: biochemical
Settings: 7 nM sproBACE1, 25 nM EuK-biotin APPsw substrate, pH 5.0, 3 hr at 30° C.
From the text: A predicted soluble form of human BACE1 (sBACE1, corresponding to amino acids 1-454) was generated from the full length BACE1 cDNA (full length human BACE1 cDNA in pcDNA4/mycHisA construct; University of Toronto) by PCR using the advantage-GC cDNA PCR kit (Clontech, Palo Alto, Calif.). A HindIII/PmeI fragment from pcDNA4-sBACE1myc/His was blunt ended using Klenow and subcloned into the StuI site of pFASTBACI(A) (Invitrogen). A sBACE1mycHis recombinant bacmid was generated by transposition in DH10Bac cells(GIBCO/BRL). Subsequently, the sBACE1 mycHis bacmid construct was transfected into sf9 cells using CellFectin (Invitrogen, San Diego, Calif.) in order to generate recombinant baculovirus. […]
Proteins, were eluted from the Q-sepharose column with Buffer B (20 mM HEPES, pH 8.0, 500 mM NaCl). […] Peak protein fractions as determined by the Bradford Assay (Biorad, CA) were concentrated using a Centricon 30 concentrator (Millipore). sBACE1 purity was estimated to be ˜90% as assessed by SDS-PAGE and Commassie Blue staining. […]
IC50 determinations for inhibitors, (I), were determined by measuring the percent change of the relative fluorescence at 665 nm divided by the relative fluorescence at 620 nm, (665/620 ratio), in the presence of varying concentrations of I and a fixed concentration of enzyme and substrate. […]

T1 sequence (P56817 22-454): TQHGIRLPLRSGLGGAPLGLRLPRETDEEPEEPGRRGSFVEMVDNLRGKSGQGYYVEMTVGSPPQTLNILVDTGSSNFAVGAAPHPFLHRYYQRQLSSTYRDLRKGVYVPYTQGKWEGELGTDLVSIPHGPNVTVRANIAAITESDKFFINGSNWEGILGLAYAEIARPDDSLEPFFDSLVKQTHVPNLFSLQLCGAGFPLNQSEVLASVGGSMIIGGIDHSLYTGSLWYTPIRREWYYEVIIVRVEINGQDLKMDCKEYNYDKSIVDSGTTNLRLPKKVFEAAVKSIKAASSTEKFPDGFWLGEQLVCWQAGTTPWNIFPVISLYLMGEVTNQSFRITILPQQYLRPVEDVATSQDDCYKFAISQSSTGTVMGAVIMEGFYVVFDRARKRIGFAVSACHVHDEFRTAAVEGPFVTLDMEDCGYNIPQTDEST

## CC(=O)N[C@@H](Cc1cc(F)cc(OCc2ccncc2)c1)[C@H](O)[C@@H]1NCCN(Cc2ccccc2)C1=O
  IC50: 186 nM

Reference: patent US8367712B2, “Substituted amide beta secretase inhibitors” (Merck, Sharp & Dohme, Corp., priority 2004, dated 2013)
